Measurements reported in article PMC7232172, “APETx-Like Peptides from the Sea Anemone Heteractis crispa, Diverse in Their Effect on ASIC1a and ASIC3 Ion Channels” (Toxins, 2020).
Bridges are numbered along the chain shown (N, C = ends). Where no end group is shown, it is not given here.

Columns and labels:
hERG = test system: hERG; design: method as in 2 sources, ref 31 = [31]; PMID 25337890; doi:10.1021/jm501400p; 31. Jensen J.E. Cristofori-Armstrong B. Anangi R. Rosengren K.J. Lau C.H.Y. Mobli M. Brust A. Alewood P.F. King G.F. Rash L.D. Understanding the molecular basis of toxin promiscuity: The analgesic sea ||| ref 33 = [33]; PMID 12815161; doi:10.1124/mol.64.1.59; 33. Diochot S. APETx1, a new toxin from the sea anemone anthopleura elegantissima, blocks voltage-gated human ether-a-go-go-related gene potassium channels Mol. Pharmacol. 2003 64 59 69 10.1124/mol.64; conditions: cited from earlier work
ASIC3 = conditions: cited from earlier work
ASIC2a = conditions: cited from earlier work
Text: (§1) It is noteworthy that to increase the current through the ASICs it takes an order of magnitude higher concentration of toxins than to inhibit it. […] No ASIC3 ...

ASIC1b = conditions: cited from earlier work
Text: as §1

human ASIC3 = conditions: simian-kidney-derived COS-7 cells; read-out: IC50, inhibition of human ASIC3; cited from earlier work
Text: (§2) Table 2 Electrophysiological activity of sea anemone toxins of structural class 1b on homomeric acid-sensing ion channels (ASICs). | column: ASIC3

rat ASIC3 channel [1] = molecular target: T1, rat ASIC3 channel (Rattus norvegicus, UniProt O35240); conditions: rat ASIC3, X. laevis oocytes according to footnote of Table 2; read-out: IC50, inhibition of ASIC3 (APETx2); cited from earlier work
T1 construct: expressed in transfected cells; host or cells: Xenopus laevis oocytes (cRNA injection)
T1 sequence (O35240 1-533): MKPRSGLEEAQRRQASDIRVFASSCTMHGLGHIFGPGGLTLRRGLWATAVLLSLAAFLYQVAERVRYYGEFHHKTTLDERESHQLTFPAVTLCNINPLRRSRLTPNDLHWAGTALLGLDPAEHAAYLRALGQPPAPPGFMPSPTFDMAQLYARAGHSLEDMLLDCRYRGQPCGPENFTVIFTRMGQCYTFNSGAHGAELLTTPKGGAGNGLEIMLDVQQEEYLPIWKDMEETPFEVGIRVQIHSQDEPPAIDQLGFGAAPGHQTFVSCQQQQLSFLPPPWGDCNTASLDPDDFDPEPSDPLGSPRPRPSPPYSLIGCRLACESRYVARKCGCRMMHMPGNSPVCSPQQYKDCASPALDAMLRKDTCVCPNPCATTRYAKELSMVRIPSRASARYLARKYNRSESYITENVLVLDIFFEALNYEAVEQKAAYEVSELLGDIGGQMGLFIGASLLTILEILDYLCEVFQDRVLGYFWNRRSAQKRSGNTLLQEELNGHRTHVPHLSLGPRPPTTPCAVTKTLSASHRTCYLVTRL
Text: as §2

ASIC1a = conditions: cited from earlier work
Text: Animal toxins produced by spiders, snakes, and sea anemones are considered molecular instruments for the study of ASICs gating and promising drug precursors. […] Peptides from spiders and snakes inhibit mostly mammalian ASIC1a channels. […] Peptides Hcr 1b-3 and Hcr 1b-4, electrophysiologically examined in this study, are the closest homologues of Hcr 1b-1 and Hcr 1b-2 (78%–97% of identity) as well as APETx2 (46%–49% of identity) that are attributed to β-defensin-like peptides. […] (Table 2). Despite the absence of the crucial basic residue Arg17 [31] in the sequence ...

NaV1.2 = test system: NaV1.2; design: method as in PMID 22972919; conditions: cited from earlier work
[2] = cited from earlier work
Text: Similarly to other APETx-like peptides, HcrTxs form four-stranded antiparallel β-sheets cross-linked by three disulfide bridges (C1–C5, C2–C4, C3–C6). Conforming to the obtained models, the short α-helix (22-24 aa) of HcrTxs localized within the flexible region between the second and third strands (Figure 3a). Hcr 1b-2, -3, -4, and APETx2 are very basic peptides (theoretical pI being of 9.53, 9.23, 9.26, and 9.33, respectively). Basic-aromatic clusters play an important role in the formation of complexes between the ASIC channel and peptide toxins PcTx1, mambalgin- ...

NaV1.8 = test system: NaV1.8; design: method as in PMID 22972919; conditions: cited from earlier work
NaV1.7 = test system: NaV1.7; design: method as in PMID 22442564; conditions: TTX-sensitive NaV; read-out: EC50, NaV1.7 potentiation; cited from earlier work
KV3.1 = test system: KV3.1; design: method as in PMID 9506974; conditions: cited from earlier work
TTX-resistant NaV = test system: TTX-resistant NaV; design: method as in PMID 22442564; conditions: cited from earlier work
KV3.4 = test system: KV3.4; design: method as in PMID 16177043; conditions: cited from earlier work
rat ASIC3 channel [3] = molecular target: T1, rat ASIC3 channel; test: Two-electrode voltage clamp, homomeric ASIC3 transient currents in Xenopus laevis oocytes; type: cell-based; conditions: mean ± SD, 5 cells
Description: (§3) The study of the pharmacological profile of the Hcr 1b-3 and Hcr 1b-4 peptides from H. crispa was carried out on two major ion channel subtypes, ASIC1a and ASIC3. Homomeric ASIC1a channels expressed in X. laevis oocytes were activated by a rapid pH drop from 7.8 to 5.5 in 15 s after peptide application. To analyze the effect of HcrTxs on the transient component of the ASIC3 current, the channels were activated by rapid extracellular acidification from pH 7.8 to 4.0, but effects on the sustained ASIC3 current were not studied. The inhibitory activity of three class 1b sea anemone toxins, APETx2, Hcr 1b-1, and Hcr 1b-2, towards ASICs was previously assayed in electrophysiological experiments (Table 2). In addition, we previously reported that the Hcr 1b-3 and Hcr 1b-4 peptides inhibited about 54% and 80% of the ASIC1a current, respectively.
Animal care and animal experiments were performed following the protocol approved by the Animal Care and Use Committee of the Shemyakin-Ovchinnikov Institute of Bioorganic Chemistry, Approval Code: 267/2018; Approval Date: 2 October 2018. RAS. Rat ASIC1a and ASIC3 channels were expressed in Xenopus laevis oocytes after injection of 2.5–10 ng of cRNA, as previously described. After injection oocytes were kept for 2–3 days at 19 °C and then up to 5 days at the temperature of 15–16 °C in sterile ND96 medium (96 mM NaCl, 2 mM KCl, 1.8 mM CaCl2, 1 mM MgCl2, 5 mM HEPES titrated to pH 7.4 with NaOH supplemented with 50 μg/mL of gentamycin). Two-electrode voltage clamp recordings were performed using GeneClamp 500 amplifier (Axon Instruments, Foster City, CA, USA). The data were filtered at 100 Hz and digitized at 1000 Hz by an AD converter L780 (LCard, Moscow, Russia) using in-house software. The solutions were applied to a cell chamber (volume 75 μL). The laminar flow of an external solution of ND96 (pH 7.8) was used at a rate of 1 mL/min. ASIC1a and ASIC3 were activated by a short pH drop from 7.8 to 5.5 or to 4.0 (10 mM MES or 10 mM acetic acid was used as the buffer solution, respectively) in supplementary 0.1% BSA solution. Peptides were applied for up to 15 s before the activation impulse. A value of currents inhibition was calculated as the ratio of the peak current amplitude when the peptide was applied to the average amplitude of the control peak currents before and after the peptide application and expressed as a percentage. To construct the concentration–response curves, a logistic equation was the following: y = ((1 – A)/(1 + ([C]/IC50) nH)) + A; where y is the relative value of current inhibition; C is the peptide concentration; IC50 is the half maximal inhibitory concentration; nH is the Hill coefficient; A is the response value at maximal inhibition (% of control). Calculations were carried out using software Origin 7.0. […]

rat ASIC1a channel = molecular target: T2, rat ASIC1a channel (Rattus norvegicus, UniProt P55926); test: Two-electrode voltage clamp, homomeric ASIC1a currents in Xenopus laevis oocytes; type: cell-based; conditions: mean ± SD, 5 cells
T2 construct: expressed in transfected cells; host or cells: Xenopus laevis oocytes (cRNA injection)
T2 sequence (P55926 1-526): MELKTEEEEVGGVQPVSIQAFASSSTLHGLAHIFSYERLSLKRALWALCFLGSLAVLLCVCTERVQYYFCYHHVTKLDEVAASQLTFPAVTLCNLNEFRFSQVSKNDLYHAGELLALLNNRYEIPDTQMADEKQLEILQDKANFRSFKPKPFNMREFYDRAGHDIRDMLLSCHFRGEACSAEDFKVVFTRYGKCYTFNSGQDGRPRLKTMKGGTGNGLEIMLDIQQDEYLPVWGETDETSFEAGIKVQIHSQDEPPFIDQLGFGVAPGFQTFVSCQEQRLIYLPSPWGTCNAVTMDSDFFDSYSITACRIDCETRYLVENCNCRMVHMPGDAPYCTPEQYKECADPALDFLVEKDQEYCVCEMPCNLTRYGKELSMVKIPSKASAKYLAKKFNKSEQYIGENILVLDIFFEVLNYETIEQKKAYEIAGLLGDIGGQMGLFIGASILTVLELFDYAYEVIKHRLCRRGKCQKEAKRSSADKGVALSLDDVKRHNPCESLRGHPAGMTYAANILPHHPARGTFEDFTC
Description: as §3
Animal care and animal experiments were performed following the protocol approved by the Animal Care and Use Committee of the Shemyakin-Ovchinnikov Institute of Bioorganic Chemistry, Approval Code: 267/2018; Approval Date: 2 October 2018. RAS. Rat ASIC1a and ASIC3 channels were expressed in Xenopus laevis oocytes after injection of 2.5–10 ng of cRNA, as previously described. After injection oocytes were kept for 2–3 days at 19 °C and then up to 5 days at the temperature of 15–16 °C in sterile ND96 medium (96 mM NaCl, 2 mM KCl, 1.8 mM CaCl2, 1 mM MgCl2, 5 mM HEPES titrated to pH 7.4 with NaOH supplemented with 50 μg/mL of gentamycin). Two-electrode voltage clamp recordings were performed using GeneClamp 500 amplifier (Axon Instruments, Foster City, CA, USA). The data were filtered at 100 Hz and digitized at 1000 Hz by an AD converter L780 (LCard, Moscow, Russia) using in-house software. The solutions were applied to a cell chamber (volume 75 μL). The laminar flow of an external solution of ND96 (pH 7.8) was used at a rate of 1 mL/min. ASIC1a and ASIC3 were activated by a short pH drop from 7.8 to 5.5 or to 4.0 (10 mM MES or 10 mM acetic acid was used as the buffer solution, respectively) in supplementary 0.1% BSA solution. Peptides were applied for up to 15 s before the activation impulse. A value of currents inhibition was calculated as the ratio of the peak current amplitude when the peptide was applied to the average amplitude of the control peak currents before and after the peptide application and expressed as a percentage. To construct the concentration–response curves, a logistic equation was the following: y = ((1 – A)/(1 + ([C]/IC50) nH)) + A; where y is the relative value of current inhibition; C is the peptide concentration; IC50 is the half maximal inhibitory concentration; nH is the Hill coefficient; A is the response value at maximal inhibition (% of control). Calculations were carried out using software Origin 7.0. The data are presented as mean ± SD.

Question: Which IC50 (hERG) does the source give for “APETx2: toxin from sea anemone Anthopleura elegantissima, ASIC3 inhibitor (GTACSCGNSKGIYWFYRPSCPTDRGYTGSCRYFLGTCCTPAD; UniProt P61542 1-42, looked up)” here?
Answer: 1.21 ± 0.05 µM

Question: And the IC50 (ASIC3; species not given, read-out: IC50, inhibition of ASIC3)?
Answer: 0.063 µM

Question: And the “effect on ASIC3 sustained component” value (ASIC3; sustained current)?
Answer: no effect

Question: What about the “effect on ASIC2a current” value (ASIC2a) of the same substance?
Answer: potentiate ASIC1b and ASIC2a currents

Question: And the “effect on ASIC1b current” value (ASIC1b)?
Answer: potentiate ASIC1b

Question: What about the IC50 (human ASIC3) of the same substance?
Answer: 0.175 µM

Question: What about the IC50 (rat ASIC3 channel [1]) of the same substance?
Answer: 0.063 µM

Question: And the “effect on ASIC1a current” value (ASIC1a)?
Answer: no effect

Question: What about the IC50 (NaV1.2) of the same substance?
Answer: 0.114 ± 0.025 µM

Question: What about the “theoretical pI” value [2] of the same substance?
Answer: 9.33

Question: What about the IC50 (NaV1.8) of the same substance?
Answer: 0.055 ± 0.01 µM

Question: Which EC50 (NaV1.7) does the source give for “BDS-I: toxin BDS-I from sea anemone A. sulcata (AAPCFCSGKPGRGDLWILRGTCPGGYGYTSNCYKWPNICCYPH; UniProt P11494 1-43, looked up)” here?
Answer: ~0.003 µM

Question: What about the IC50 (KV3.1) of the same substance?
Answer: 0.047 µM

Question: And the “effect on TTX-resistant NaV” value (TTX-resistant NaV)?
Answer: weakly inhibits TTX-resistant NaV

Question: What about the IC50 (KV3.4) of the same substance?
Answer: 0.22 µM

Question: With “GTPCDCYGYTGVYWFMLSRCPSGYGYNLSCHYFMGICCVKR (disulfide 4-37, 6-30, 20-38) [Hcr 1b-4]” as the substance, how does the EC50 (rat ASIC3 channel [3]; X. laevis oocytes, pH drop 7.8 to 4.0 (legend of Figure 4: from 7.4), potentiation, read-out: EC50, potentiation of transient rASIC3 current) read?
Answer: 1.53 ± 0.07 µM

Question: What about the “A, rASIC3 potentiation” value (rat ASIC3 channel [3]; fit parameter, pH drop to 4.0) of the same substance?
Answer: 207.78 ± 1.56%

Question: And the IC50 (rat ASIC1a channel; X. laevis oocytes, pH drop 7.8 to 5.5 (legend of Figure 4: from 7.4), peptide applied up to 15 s before, logistic fit, read-out: IC50, inhibition of rASIC1a current)?
Answer: 1.25 ± 0.04 µM

Question: And the “A (response value at maximal inhibition, % of control), rASIC1a” value (rat ASIC1a channel; fit parameter, pH drop to 5.5)?
Answer: 13.7 ± 0.8%
